How the values were obtained:
[1] = molecular target: Ephrin type-A receptor 2 (Homo sapiens) (UniProt P29317); assay: Inhibition of human EPHA2 (591 to 976 residues) assessed as residual activity at 500 nM in presence of 33P-ATP by filter binding assay relative to control
[2] = molecular target: Myosin light chain kinase, smooth muscle (Homo sapiens) (UniProt Q15746); assay: Inhibition of human smMLCK (475 to 838 residues) assessed as residual activity at 500 nM in presence of 33P-ATP by filter binding assay relative to control
Sequence of Myosin light chain kinase, smooth muscle (Homo sapiens) (Q15746 whole entry, the tested form may be a part): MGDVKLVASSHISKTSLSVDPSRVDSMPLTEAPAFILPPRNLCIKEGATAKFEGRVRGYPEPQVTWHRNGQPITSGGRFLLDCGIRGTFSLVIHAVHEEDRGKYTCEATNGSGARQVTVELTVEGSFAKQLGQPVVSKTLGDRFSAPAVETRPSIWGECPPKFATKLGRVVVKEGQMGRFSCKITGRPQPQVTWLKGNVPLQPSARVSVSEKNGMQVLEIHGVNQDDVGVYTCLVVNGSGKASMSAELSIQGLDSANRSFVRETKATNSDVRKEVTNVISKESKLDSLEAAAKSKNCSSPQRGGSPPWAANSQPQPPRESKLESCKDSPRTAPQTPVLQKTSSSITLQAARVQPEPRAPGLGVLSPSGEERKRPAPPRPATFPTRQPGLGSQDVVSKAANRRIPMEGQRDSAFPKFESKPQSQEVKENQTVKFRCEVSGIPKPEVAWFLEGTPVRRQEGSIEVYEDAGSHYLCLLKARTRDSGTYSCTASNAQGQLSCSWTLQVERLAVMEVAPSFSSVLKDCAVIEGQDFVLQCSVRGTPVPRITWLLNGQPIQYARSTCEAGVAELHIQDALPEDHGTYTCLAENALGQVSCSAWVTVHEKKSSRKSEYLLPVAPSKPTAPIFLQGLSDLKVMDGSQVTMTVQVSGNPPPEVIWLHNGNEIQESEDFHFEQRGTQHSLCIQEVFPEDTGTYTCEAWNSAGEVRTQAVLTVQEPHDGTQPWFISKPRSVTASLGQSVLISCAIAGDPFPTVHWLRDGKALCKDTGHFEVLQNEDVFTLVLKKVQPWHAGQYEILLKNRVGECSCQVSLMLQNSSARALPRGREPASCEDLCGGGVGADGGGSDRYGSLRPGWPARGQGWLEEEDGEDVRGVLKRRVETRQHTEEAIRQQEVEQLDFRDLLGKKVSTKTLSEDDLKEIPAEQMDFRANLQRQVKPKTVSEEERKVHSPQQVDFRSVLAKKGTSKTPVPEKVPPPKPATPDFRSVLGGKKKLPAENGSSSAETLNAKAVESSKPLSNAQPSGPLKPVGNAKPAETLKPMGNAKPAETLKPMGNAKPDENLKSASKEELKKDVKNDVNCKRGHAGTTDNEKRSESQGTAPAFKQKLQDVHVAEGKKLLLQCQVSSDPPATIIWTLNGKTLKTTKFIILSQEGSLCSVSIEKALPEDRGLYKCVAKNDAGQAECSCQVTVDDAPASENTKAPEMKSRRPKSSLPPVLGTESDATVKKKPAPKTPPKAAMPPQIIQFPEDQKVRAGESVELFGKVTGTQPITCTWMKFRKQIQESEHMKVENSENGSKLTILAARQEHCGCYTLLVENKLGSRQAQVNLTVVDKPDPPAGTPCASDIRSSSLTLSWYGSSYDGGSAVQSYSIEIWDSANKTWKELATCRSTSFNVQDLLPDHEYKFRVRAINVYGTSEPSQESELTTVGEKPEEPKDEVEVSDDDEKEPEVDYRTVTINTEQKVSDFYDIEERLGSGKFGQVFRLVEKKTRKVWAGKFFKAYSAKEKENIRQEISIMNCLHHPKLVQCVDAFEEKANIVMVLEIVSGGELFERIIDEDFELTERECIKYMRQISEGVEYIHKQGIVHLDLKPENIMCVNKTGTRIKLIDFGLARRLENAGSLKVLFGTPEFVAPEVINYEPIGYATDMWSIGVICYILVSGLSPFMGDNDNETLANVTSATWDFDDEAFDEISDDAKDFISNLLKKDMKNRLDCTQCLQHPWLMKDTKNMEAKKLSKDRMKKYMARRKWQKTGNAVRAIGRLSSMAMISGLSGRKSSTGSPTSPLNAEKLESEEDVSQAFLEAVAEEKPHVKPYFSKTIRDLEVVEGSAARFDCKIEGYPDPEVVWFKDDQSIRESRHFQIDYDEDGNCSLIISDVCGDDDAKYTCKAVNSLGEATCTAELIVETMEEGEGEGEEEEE

Sequence of Ephrin type-A receptor 2 (Homo sapiens) (P29317 whole entry, the tested form may be a part): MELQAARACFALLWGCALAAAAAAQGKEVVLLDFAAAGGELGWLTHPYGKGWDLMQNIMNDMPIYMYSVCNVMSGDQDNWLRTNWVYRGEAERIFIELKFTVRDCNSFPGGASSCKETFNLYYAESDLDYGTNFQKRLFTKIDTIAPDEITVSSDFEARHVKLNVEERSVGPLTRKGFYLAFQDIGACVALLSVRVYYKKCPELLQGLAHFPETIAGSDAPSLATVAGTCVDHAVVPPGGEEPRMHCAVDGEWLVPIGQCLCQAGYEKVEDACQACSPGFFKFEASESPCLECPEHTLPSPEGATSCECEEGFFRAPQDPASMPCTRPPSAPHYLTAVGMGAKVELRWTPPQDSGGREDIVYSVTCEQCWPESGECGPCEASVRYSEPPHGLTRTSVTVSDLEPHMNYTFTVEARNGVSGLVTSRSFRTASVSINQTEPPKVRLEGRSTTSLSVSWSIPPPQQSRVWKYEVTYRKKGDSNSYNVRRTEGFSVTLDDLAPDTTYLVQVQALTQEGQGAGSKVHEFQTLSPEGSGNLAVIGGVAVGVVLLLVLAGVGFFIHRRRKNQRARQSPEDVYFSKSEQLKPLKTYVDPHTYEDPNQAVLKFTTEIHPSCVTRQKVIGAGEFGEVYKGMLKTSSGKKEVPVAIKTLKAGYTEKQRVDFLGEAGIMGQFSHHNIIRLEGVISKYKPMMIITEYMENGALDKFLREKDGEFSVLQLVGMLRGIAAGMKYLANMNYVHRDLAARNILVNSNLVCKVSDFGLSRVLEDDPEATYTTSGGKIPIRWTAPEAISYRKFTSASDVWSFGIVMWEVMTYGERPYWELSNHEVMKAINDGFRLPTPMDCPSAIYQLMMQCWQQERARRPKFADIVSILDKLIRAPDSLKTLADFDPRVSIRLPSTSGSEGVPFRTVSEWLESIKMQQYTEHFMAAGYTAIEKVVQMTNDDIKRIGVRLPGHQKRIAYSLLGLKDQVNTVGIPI

- Activity [1]: 99%
- Activity [2]: 104%
Structure (SMILES): Cc1cccc(-c2nc(N)sc2-c2ccc3ncccc3n2)c1
